In ChEMBL document CHEMBL1201862, “PubChem BioAssay data set” (2004):
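Grown in 96-well plates, cells were treated for 48 hours with each compound at five concentrations. Insufficient inhibition: endpoint recorded as highest concentration tested. GI50: concentration for 50% inhibition of growth.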 The source made the active and inactive calls. Rule as the data show it: active = GI50 up to about 1.1 µM and inactive = higher.

Key:
Assay in all cases: NCI anticancer screen, dose series, 48 h
DU-145 = test system: DU-145
RPMI-8226 = test system: RPMI-8226
T47D = test system: T47D
SNB-75 = test system: SNB-75
NCI/ADR-RES = test system: NCI/ADR-RES
KM12 = test system: KM12
NCI-H522 = test system: NCI-H522
LOX IMVI = test system: LOX IMVI
786-0 = test system: 786-0
CCRF-CEM = test system: CCRF-CEM
Malme-3M = test system: Malme-3M
SF-295 = test system: SF-295
SNB-19 = test system: SNB-19
OVCAR-8 = test system: OVCAR-8
CAKI-1 = test system: CAKI-1
NCI-H460 = test system: NCI-H460
TK-10 = test system: TK-10
HL-60 = test system: HL-60
HCT-15 = test system: HCT-15
UO-31 = test system: UO-31

Row | Structure (SMILES) | GI50 (DU-145) | GI50 (RPMI-8226) | GI50 (T47D) | GI50 (SNB-75) | GI50 (NCI/ADR-RES) | GI50 (KM12) | GI50 (NCI-H522) | GI50 (LOX IMVI) | GI50 (786-0) | GI50 (CCRF-CEM) | GI50 (Malme-3M) | GI50 (SF-295) | GI50 (SNB-19) | GI50 (OVCAR-8) | GI50 (CAKI-1) | GI50 (NCI-H460) | GI50 (TK-10) | GI50 (HL-60) | GI50 (HCT-15) [nM] | GI50 (UO-31)
1 | OCCSCC(O)Cn1cnc2c(O)nc(Nc3ccccc3)nc21 (stereo not drawn) | > 100 µM (inactive) | > 100 µM (inactive) | > 100 µM (inactive) | > 100 µM (inactive) | > 100 µM (inactive) | > 100 µM (inactive) | > 100 µM (inactive) | > 100 µM (inactive) | > 100 µM (inactive) | > 100 µM (inactive) | > 100 µM (inactive) | > 100 µM (inactive) | > 100 µM (inactive) | > 100 µM (inactive) | > 100 µM (inactive) | > 100 µM (inactive) | > 100 µM (inactive) | > 100 µM (inactive) | > 100000 | 
2 | Cc1cc(Oc2cnc(=O)[nH]c2)cs1 | > 100 µM (inactive) | > 100 µM (inactive) | > 100 µM (inactive) | > 100 µM (inactive) | > 100 µM (inactive) | > 100 µM (inactive) | > 100 µM (inactive) | > 100 µM (inactive) | > 100 µM (inactive) | > 100 µM (inactive) | > 100 µM (inactive) | > 100 µM (inactive) | > 100 µM (inactive) | > 100 µM (inactive) | > 100 µM (inactive) | > 100 µM (inactive) | > 100 µM (inactive) | > 100 µM (inactive) | > 100000 | > 100 µM (inactive)
3 | COc1ccc(-c2nc(SCC(=O)N/N=C/c3ccc([N+](=O)[O-])cc3)[nH]c2-c2ccc(OC)cc2)cc1 | 28 µM (inactive) | 8.91 µM (inactive) | 15.8 µM (inactive) | 15.2 µM (inactive) | 19.1 µM (inactive) | 4.86 µM (inactive) | 6.95 µM (inactive) | 14 µM (inactive) | 20 µM (inactive) | 3.18 µM (inactive) | 17.5 µM (inactive) | 8.05 µM (inactive) | 24.4 µM (inactive) | 17.7 µM (inactive) | 28.1 µM (inactive) | 10.3 µM (inactive) | 22.3 µM (inactive) | 4.07 µM (inactive) | 8550 | 18.8 µM (inactive)
4 | C=CCN1CN(C2CCCCC2)CSC1=S | 2.23 µM (inactive) | 1.04 µM (active) | 0.883 µM (active) | 6.12 µM (inactive) | 8.83 µM (inactive) | 3.19 µM (inactive) | 2.8 µM (inactive) | 3.9 µM (inactive) | 3.27 µM (inactive) | 0.818 µM (active) | 3.16 µM (inactive) | 28.4 µM (inactive) | 16.9 µM (inactive) | 4.06 µM (inactive) | 4.72 µM (inactive) | 4.12 µM (inactive) | 3.69 µM (inactive) | 0.129 µM (active) | 2540 | 8 µM (inactive)
5 | Cc1ccc(C(=O)Nc2ccc(CP(=O)(O)O)cc2)cc1NC(=O)c1cccc(N)c1 | > 100 µM (inactive) | > 100 µM (inactive) | > 100 µM (inactive) | > 100 µM (inactive) | > 100 µM (inactive) | > 100 µM (inactive) | > 100 µM (inactive) | > 100 µM (inactive) | > 100 µM (inactive) | > 100 µM (inactive) | > 100 µM (inactive) | > 100 µM (inactive) | > 100 µM (inactive) | > 100 µM (inactive) | > 100 µM (inactive) |  | > 100 µM (inactive) | > 100 µM (inactive) | > 100000 | > 100 µM (inactive)
6 | CS(=O)(=O)c1nc(Cl)c(Cl)c(C#N)c1Cl | 11.4 µM (inactive) | 2.32 µM (inactive) | 2.16 µM (inactive) | 9.89 µM (inactive) | 2.25 µM (inactive) | 6.97 µM (inactive) | 0.322 µM (active) | 1.95 µM (inactive) | 1.94 µM (inactive) | 0.998 µM (active) | 2.3 µM (inactive) | 16.7 µM (inactive) | 19.8 µM (inactive) | 2.88 µM (inactive) | 0.984 µM (active) | 11.5 µM (inactive) | 3.18 µM (inactive) | 1.15 µM (inactive) | 1610 | 1.91 µM (inactive)
7 | C=C1CC2(CCCC3(CC(=C)C(=O)O3)C2(C)C)OC1=O (stereo not drawn) | 3.73 µM (inactive) | 0.47 µM (active) | 3.33 µM (inactive) | 16.7 µM (inactive) | 13.2 µM (inactive) | 8.11 µM (inactive) | 1.46 µM (inactive) | 1.69 µM (inactive) | 1.81 µM (inactive) | 0.437 µM (active) | 1.64 µM (inactive) | 16.5 µM (inactive) | 17.3 µM (inactive) | 1.38 µM (inactive) | 2.7 µM (inactive) | 18.7 µM (inactive) | 1.18 µM (inactive) | 2.4 µM (inactive) | 491 | 3.06 µM (inactive)
